Assay results: article PMC12592502, “Unraveling the mechanisms behind the enhanced efficacy of β-lactam-based sideromycins” (Communications Biology, 2025)
≈ marks a conversion by molar mass, not a printed value. Read-outs that look alike come from different tables or passages of the source.

Experiments:
A. baumannii ATCC 19606 = assay: MIC, broth microdilution (CLSI); format: cell-based, Acinetobacter baumannii; details: for MIC in combination with PAβN: + 25 µg/mL PAβN
Procedure: (§1) All bacterial strains (see description and sources Table S1) were stored at −80 °C, and grown on tryptone soya agar (TSA) at 35 °C. The iron-deprived (ID)-MHBCA (cation-adjusted Muller-Hinton Broth, Becton Dickinson, Mississauga, ON, Canada) medium was prepared as reported by refs. [21],[50]. Briefly, MHBCA was treated with 10% Chelex® 50-100 mesh (Sigma) and stirred for 6 h at room temperature. The resin was removed by filtration. Divalent Ca^2+ (CaCl2), Mg^2+ (MgCl2), and Zn^2+(ZnSO4), were then added in the iron-depleted medium at 22, 12, and 1 μg/ml respectively. Finally, the pH was adjusted to 7.3, and the medium was sterilized with a 0.2-μm filter. Regular MHBCA (i.e., not treated with Chelex®) was used to compare the inhibitory activity of conjugates in iron-sufficient conditions. The resin used for Chelex treatment was always fresh and had never been regenerated, ensuring consistent iron removal.
(§2) Minimal inhibitory concentrations (MICs) were performed using a broth microdilution technique according to the Clinical and Laboratory Standards Institute (CLSI) guidelines. MICs were determined in MHBCA and in ID-MHBCA. To check the impact of β-lactamases, MICs in the presence of a β-lactamase inhibitor were also determined. The inhibitor was homogenized at 2X the final concentration and added to the bacterial inoculum just before distributing cells into the wells containing the drug dilutions. The final concentration of each inhibitor was 4 μg/mL for clavulanic acid (tested against K. pneumoniae) and 200 μg/mL for 3-aminophenylboronic acid (tested against P. aeruginosa and A. baumannii).

[1] = test system: P. aeruginosa 2302 MexAB, MexCD, MexEF upregulated; assay: MIC, efflux pump overexpressing strain; format: cell-based, Pseudomonas aeruginosa
Procedure: as §2

P. aeruginosa 1020 = assay: MIC, parent of efflux pump mutants; format: cell-based, Pseudomonas aeruginosa
Procedure: as §2

PBP1a/1b = assay: Membrane PBP binding assay, competition with Bocillin FL; design: species or system E. coli MC4100; details: E. coli MC4100 membranes, 12.5 μM Bocillin FL
Procedure: (§3) Membrane extracts containing PBPs were obtained as described above. Briefly, all species were grown in 1 L of TSB until the OD600 reached 0.9. The washed pellet was incubated with lysozyme (400 μg/mL), DNase (10 μg/mL) RNase(10 μg/mL) and anti-protease cocktail (200 mg/20 mL). Lysis was done with a French press (20,000 psi) and membrane protein were pelleted by ultracentrifugation steps (100,000 × g). The pellet was suspended in a minimal volume (300–500 μL) of KP 0.05 M buffer at pH 7. The protein concentration in the membrane preparations was determined with the Micro BCA TM Protein Assay Kit (Thermo Fisher Scientific, Rockford, IL) using bovine serum albumin as a standard.
(§4) The PBP binding assay was done as described previously[36],[56],[57]. For each antibiotic concentration tested, a quantity of 25 to 40 μg of membrane preparation was used as the source of PBPs, depending on the species. For the purified PaPBP3, 150 ng was used in the assay. First, increasing concentrations of the test antibiotic was added to the membrane or purified PaPBP3 preparations and incubated for 10 min at 30 °C. The reporter molecule Bocillin FL was then added at 12.5 μM for the membrane PBPs preparations and at 500 nM for the pure PaPBP3 samples for an additional 20 min at 30 °C. All reactions were stopped with the addition of the Laemmli-loading buffer (Bio-Rad) containing fresh β-mercaptoethanol (Sigma). All reactions were then heated at 100°C for 3 min before migration on SDS-polyacrylamide discontinuous gel system (7.5% stacking and 10% separating). Control samples without Bocillin FL were also included to highlight autofluorescent proteins that are not PBPs.
(§5) To be able to visualize labeled PBPs after electrophoresis, gels were rinsed in water and fixed in a solution of 50% methanol and 7% acetic acid for 30 min. The fluorescent images of gels were obtained with the Typhoon FLA 9500 instrument (GE-Healthcare Bio-Sciences Inc., Baie-d’Urfé, QC, CA) using a 473 nm excitation wavelength. To obtain quantifiable data, the software Quantity One 1D analysis was used (version 4.6.6; Bio-Rad Laboratories, Richmond, CA). The volume (intensity × constant area) of each PBP was measured. […] All IC50 data were obtained from at least two independent PBP binding assays using two different sets of compound concentrations using a linear regression. The PBP profiles were confirmed, and the PBP numbering were determined using published data and individual molecular weights. […] For example, amdinocillin (Sigma) was used for PBP2 identification. […] The IC50 for PBP 2 of P. aeruginosa was measured by including the SDS-PAGE comigrating autofluorescent protein in the background, as done previously.

PBP4 = molecular target: T1, PBP4 (Escherichia coli, UniProt P24228); assay: as above; design: species or system E. coli MC4100
T1 construct: using bacterial membranes as the source of PBPs; endogenous in cells; host or cells: E. coli MC4100 membrane preparation
Procedure: as §3, §4, §5

PBP2 = molecular target: T2, PBP2 (Escherichia coli, UniProt P0AD65); assay: as above; design: species or system E. coli MC4100
T2 construct: using bacterial membranes as the source of PBPs; endogenous in cells; host or cells: E. coli MC4100 membrane preparation
Procedure: as §3, §4, §5

PBP3 = molecular target: T3, PBP3 (Escherichia coli, UniProt P0AD68); assay: as above; design: species or system E. coli MC4100
T3 construct: using bacterial membranes as the source of PBPs; endogenous in cells; host or cells: E. coli MC4100 membrane preparation
Procedure: as §3, §4, §5

[2] = test system: P. aeruginosa 1624 ΔmexCD-oprJ, ΔmexEF-oprN; assay: MIC, efflux pump mutant; format: cell-based, Pseudomonas aeruginosa
Procedure: as §2

[3] = test system: P. aeruginosa 1625 ΔmexAB-oprM, ΔmexEF-oprN; assay: MIC, efflux pump mutant; format: cell-based, Pseudomonas aeruginosa
Procedure: as §2

E. coli ΔampC = assay: MIC, Keio mutant; format: cell-based, Escherichia coli
Procedure: as §1, §2

[4] = ID-MHBCA (−), 0 µg/mL supplemental iron, read-out: MIC
[5] = MHBCA (+), no inhibitor, read-out: MIC
[6] = E. coli MC4100 membranes, read-out: IC50 PBP4
[7] = E. coli MC4100 membranes, read-out: IC50 PBP2
[8] = E. coli MC4100 membranes, read-out: IC50 PBP3
[9] = Acinetobacter baumannii, ATCC19606, ID-MHBCA (−), 0 µg/mL supplemental iron, read-out: MIC
[10] = Acinetobacter baumannii, ATCC19606, ID-MHBCA + 1 µg/mL supplemental iron, read-out: MIC
[11] = Acinetobacter baumannii, ATCC19606, ID-MHBCA, + 200 μg/mL APB, read-out: MIC with β-lactamase inhibitor (βI)
[12] = Acinetobacter baumannii, ATCC19606, MHBCA (+), no inhibitor, read-out: MIC
[13] = Acinetobacter baumannii, ATCC19606, MHBCA, + 200 μg/mL APB, read-out: MIC with β-lactamase inhibitor (βI)

| Structure (SMILES) | MIC (A. baumannii ATCC 19606; [4]) [µM] | MIC (A. baumannii ATCC 19606; [5]) [µM] | MIC in combination with PAβN (A. baumannii ATCC 19606; MHBCA) [µM] | IC50 (PBP1a/1b) [µM] | IC50 (PBP4; [6]) [µM] | IC50 (PBP2; [7]) [µM] | IC50 (PBP3; [8]) [µM] | MIC (A. baumannii ATCC 19606; [9]) [µM] | MIC (A. baumannii ATCC 19606; [10]) [µM] | MIC (A. baumannii ATCC 19606; [11]) [µM] | MIC (A. baumannii ATCC 19606; [12]) [µM] | MIC (A. baumannii ATCC 19606; [13]) [µM] | MIC ([1]; Pseudomonas aeruginosa) [µM] | MIC ([2]; Pseudomonas aeruginosa) [µM] | MIC ([3]; Pseudomonas aeruginosa) [µM] | MIC (E. coli ΔampC; Escherichia coli, ID-MHBCA) [µM] | MIC (E. coli ΔampC; Escherichia coli, MHBCA) [µM] | also measured |
| --- | --- | --- | --- | --- | --- | --- | --- | --- | --- | --- | --- | --- | --- | --- | --- | --- | --- | --- |
| N[C@@H](C(=O)N[C@@H]1C(=O)N2C(C(=O)O)=C(Cl)CC[C@H]12)c1ccccc1 [LOR, loracarbef, reference compound] | >200 | >200 | > 200 | 42.5 ± 11.8 | 31.6 ± 9 | > 50 | 14.9 ± 4.3 | – | – | – | – | – | – | – | – | – | – | MIC (A. baumannii ATCC 19606; ID-MHBCA + 1 µg/mL supplemental iron, read-out: MIC): > 200 µM; MIC (A. baumannii ATCC 19606; ID-MHBCA, + 200 μg/mL APB, read-out: MIC with β-lactamase inhibitor (βI)): >200 µM; MIC (A. baumannii ATCC 19606; MHBCA, + 200 μg/mL APB, read-out: MIC with β-lactamase inhibitor (βI)): >200 µM; MIC ([1]; P. aeruginosa 2302): > 200 µM; MIC (P. aeruginosa 1020; P. aeruginosa 1020, read-out: MIC): > 200 µM; MIC ([2]; P. aeruginosa 1624): > 200 µM; MIC ([3]; P. aeruginosa 1625): > 200 µM; MIC (E. coli ΔampC; ID-MHBCA): 3.1 µM (≈ 1.08 µg/mL); MIC (E. coli ΔampC; MHBCA): 3.1 µM (≈ 1.08 µg/mL) |
| N[C@@H](C(=O)N[C@@H]1C(=O)N2C(C(=O)O)=C(Cl)CS[C@H]12)c1ccccc1 [CEF, cefaclor, reference compound] | >200 | >200 | > 200 | 34 ± 2 | – | – | – | > 200 | > 200 | > 200 | > 200 | > 200 | > 200 | > 200 | > 200 | 3.1 (≈ 1.14 µg/mL) | 3.1 (≈ 1.14 µg/mL) | MIC (P. aeruginosa 1020; Pseudomonas aeruginosa, 1020): > 200 µM; IC50 (PBP4): 40.2 ± 8.6 µM; IC50 (PBP2): > 50 µM; IC50 (PBP3): 15.4 ± 0.9 µM |
| O=C(CN(CCCCNC(=O)c1cccc(O)c1O)C(=O)c1cccc(O)c1O)NC(C(=O)NC1C(=O)N2C(C(=O)O)=C(Cl)CCC12)c1ccccc1 (stereo not shown) [BLOR, bis-catechol (azotochelin)-loracarbef] | – | – | > 6.3 | 0.55 ± 0.02 | 8.3 ± 0.5 | > 50 | 0.075 ± 0.011 | 0.024 (≈ 0.018 µg/mL) | 0.4 | 0.012 | 0.05 (≈ 0.0375 µg/mL) | 0.012 | 13 (≈ 9.75 µg/mL) | 6.3 (≈ 4.73 µg/mL) | 6.3 (≈ 4.73 µg/mL) | 0.006 (≈ 0.0045 µg/mL) | 0.006 (≈ 0.0045 µg/mL) | MIC (A. baumannii ATCC 19606; Acinetobacter baumannii, ATCC19606, ID-MHBCA + 0.1 µg/mL supplemental iron, read-out: MIC): 0.1 µM; MIC ratio 0/1 (A. baumannii ATCC 19606; ID-MHBCA, 0 and 1 µg/mL supplemental iron (Table S2)): 16; MIC ratio 1/0 (A. baumannii ATCC 19606; ID-MHBCA, 1 versus 0 µg/mL supplemental iron (peer review file table)): 16; MIC ratio unconjugated β-lactam/conjugate (A. baumannii ATCC 19606; MHBCA): >4096; MIC (P. aeruginosa 1020; Pseudomonas aeruginosa, P. aeruginosa 1020, read-out: MIC): 6.3 µM (≈ 4.73 µg/mL); IC50 value ratio βL/SID-βL, PBP3 (PBP3; E. coli MC4100): 199 |
